“And” between values parts separate entries of the source, which are not always exact repeats. Identical values can stand only once.
Experiments:
[1] = tested on: aged male macaques; experiment: Discrimination Learning - Long Term Retrieval task (DL LTR); assay type: in vivo; settings: for RT 1-14 (retention test trials 1 to 14), mean / RT 15-28 (retention test trials 15 to 28), mean / retention test, mean / RT overall / RT trials 1-14 / RT trials 15-28: day 8 post-criterion; for RT overall / RT trials 1-14 / RT trials 15-28: raw data of individual animals; for C value / Days to C: raw data of individual animals (Old-1, -2, -5, -7, -8, -9)
Method: (§1) The study was conducted using 6 aged male macaques (age approximately 22 years at onset of the study which is equivalent to approximately 66 human years) previously trained to performed certain memory tasks. Assessments of memory performance used the CANTAB system (the Cambridge Neuropsychological Test Automated Battery) and a new task.
In this task, animals are presented with 2 pairs of stimuli (e.g. 1 pair of shapes and 1 pair of lines) over the course of a daily test session. For each pair of stimuli, one stimulus is arbitrarily designated as the positive stimulus (i.e., touch of that stimulus is rewarded). Each pair of stimuli is presented 14 times during a daily session that consists of 28 trials. The pairs of stimuli (shapes or lines) are presented in a pseudo randomized fashion during each session. Animals have to touch the “positive” shape or line in order to receive a sugar pellet reward accompanied by a pleasant tone. Touching the alternative shape or line results in a negative tone, no sugar pellet and a time out. Animals are tested daily until they reach a performance criterion of 85% correct responses during a daily session. When this criterion is reached, animals receive no further testing for the next 7 days. On day 8 post-criterion, animals are tested again using the same pairs of stimuli that they have seen previously learned in order to assess long term retrieval of the learned discriminations.
(§2) All drugs were administered orally in marshmallow while the animal was in a specially designed testing cage. Vehicle was marshmallow alone.
(§3) Treatments were administered sequentially starting with treatment 1. Each treatment (dose of HT-0712 or vehicle) was administered once per day for 4 days before behavioral training began and then continued at 1 treatment (dose of HT-0712 or vehicle) per day, delivered four hours before testing, for the duration of the training period. When each individual animal reached performance criterion of at least 85% correct responses during a daily session, training and dosing ceased for seven days. Then, on post-criterion day 8, animals were tested again on the DL LTR task (retention testing).
The percent correct responses on the total number of daily trials were recorded as well as the number of days needed to reach the criterion (at least 85% correct responses in a single test session). The percent correct responses on the retention trial was recorded for the entire retention trial session and sub-analyzed for performance differences on trials 1-14 versus trials 15-28.
Data from vehicle trials were compared to data from drug trials using a one way ANOVA. Post hoc comparisons were made using the Bonferroni t-test.

[2] = tested on: aged male macaques; experiment: Observation of behavioral or physical side effects during the DL LTR study; assay type: in vivo; settings: any dose given (1, 10, 100 mg/kg p.o. daily)
Method: as §1, §2, §3
Data from this non-responder were removed from the statistical analysis.

[3] = tested on: aged rats; settings: treatment of aged rats; cited from earlier work
[4] = 1 mg/kg p.o. daily, excluding NHP old-9 (N=5), mean±s.e.m.
[5] = 1 mg/kg p.o. daily, including NHP old-9 (N=6)
[6] = 1 mg/kg p.o. daily, entire study group including NHP old-9 (N=6)
[7] = 1 mg/kg p.o. daily, excluding non-responder NHP old-9 (N=5), mean±s.e.m.
[8] = 10 mg/kg p.o. daily, excluding NHP old-9 (N=5), mean±s.e.m.
[9] = 10 mg/kg p.o. daily, including NHP old-9 (N=6)
[10] = 10 mg/kg p.o. daily, entire study group including NHP old-9 (N=6)
[11] = 10 mg/kg p.o. daily, excluding non-responder NHP old-9 (N=5), mean±s.e.m.
[12] = 100 mg/kg p.o. daily, excluding NHP old-9 (N=5), mean±s.e.m.
[13] = 100 mg/kg p.o. daily, including NHP old-9 (N=6)
[14] = 100 mg/kg p.o. daily, entire study group including NHP old-9 (N=6)
[15] = 100 mg/kg p.o. daily, excluding non-responder NHP old-9 (N=5), mean±s.e.m.

**Q.** Which “RT 1-14 (retention test trials 1 to 14), mean” value [1, 4] does the source give for COc1ccc([C@H]2CNC(=O)[C@H](Cc3cccc(C)c3)C2)cc1OC1CCCC1 [HT-0712] here?
**A.** 80.2±6.2 % correct responses and 80.200 % correct responses

**Q.** What about the “RT 15-28 (retention test trials 15 to 28), mean” value [1, 4] of the same molecule?
**A.** 91.6±3.4 % correct responses and 91.600 % correct responses

**Q.** What about the “retention test, mean” value [1, 4] of the same molecule?
**A.** 85.8±4.6 % correct responses and 85.800 % correct responses

**Q.** And the “RT 1-14 (retention test trials 1 to 14), mean” value [1, 5]?
**A.** 77.500 % correct responses

**Q.** What about the “RT 15-28 (retention test trials 15 to 28), mean” value [1, 5] of the same molecule?
**A.** 88.167 % correct responses

**Q.** And the “retention test, mean” value [1, 5]?
**A.** 82.833 % correct responses

**Q.** What about the RT overall ([1]; 1 mg/kg p.o. daily) of the same molecule?
**A.** 89.00 % correct responses and 68.00 % correct responses (2×) and 93.00 % correct responses (2×) and 86.00 % correct responses

**Q.** And the “RT trials 1-14” value ([1]; 1 mg/kg p.o. daily)?
**A.** 86.00 % correct responses (2×) and 64.00 % correct responses and 93.00 % correct responses and 79.00 % correct responses and 57.00 % correct responses

**Q.** And the “RT trials 15-28” value ([1]; 1 mg/kg p.o. daily)?
**A.** 93.00 % correct responses (3×) and 71.00 % correct responses and 100.00 % correct responses and 79.00 % correct responses

**Q.** What about the “C value (criterion value reached), mean” value [1, 6] of the same molecule?
**A.** 91.000 % correct responses

**Q.** What about the “day to C (days to reach criterion), mean” value [1, 6] of the same molecule?
**A.** 12.667 days

**Q.** And the “C value (criterion value reached), mean” value [1, 7]?
**A.** 91.4±1.8 % correct responses and 91.400 % correct responses

**Q.** And the “day to C (days to reach criterion), mean” value [1, 7]?
**A.** 12.0 ± 3.6 days and 12.000 days

**Q.** And the C value ([1]; 1 mg/kg p.o. daily)?
**A.** 96.00 % correct responses and 89.00 % correct responses (2×) and 86.00 % correct responses and 93.00 % correct responses (2×)

**Q.** And the “Days to C” value ([1]; 1 mg/kg p.o. daily)?
**A.** 4 days and 17 days and 15 days and 3 days and 21 days and 16 days

**Q.** What about the “RT 1-14 (retention test trials 1 to 14), mean” value [1, 8] of the same molecule?
**A.** 71.4±3.4 % correct and 71.400 % correct

**Q.** And the “RT 15-28 (retention test trials 15 to 28), mean” value [1, 8]?
**A.** 87.2±4.8 % correct and 87.200 % correct

**Q.** What about the “retention test, mean” value [1, 8] of the same molecule?
**A.** 79.2±3.5 % correct responses and 79.200 % correct responses

**Q.** And the “RT 1-14 (retention test trials 1 to 14), mean” value [1, 9]?
**A.** 73.833 % correct responses

**Q.** And the “RT 15-28 (retention test trials 15 to 28), mean” value [1, 9]?
**A.** 87.000 % correct responses

**Q.** What about the “retention test, mean” value [1, 9] of the same molecule?
**A.** 80.333 % correct responses

**Q.** And the RT overall ([1]; 10 mg/kg p.o. daily)?
**A.** 89.00 % correct responses and 86.00 % correct responses (2×) and 75.00 % correct responses (2×) and 71.00 % correct responses

**Q.** And the “RT trials 1-14” value ([1]; 10 mg/kg p.o. daily)?
**A.** 79.00 % correct responses (2×) and 86.00 % correct responses and 64.00 % correct responses (2×) and 71.00 % correct responses

**Q.** What about the “RT trials 15-28” value ([1]; 10 mg/kg p.o. daily) of the same molecule?
**A.** 100.00 % correct responses and 86.00 % correct responses (3×) and 71.00 % correct responses and 93.00 % correct responses

**Q.** What about the “C value (criterion value reached), mean” value [1, 10] of the same molecule?
**A.** 89.333 % correct responses

**Q.** And the “day to C (days to reach criterion), mean” value [1, 10]?
**A.** 14.000 days

**Q.** And the “C value (criterion value reached), mean” value [1, 11]?
**A.** 90.0±2.6 % correct responses and 90.000 % correct responses

**Q.** What about the “day to C (days to reach criterion), mean” value [1, 11] of the same molecule?
**A.** 11.8 ± 2.3 days and 11.800 days

**Q.** What about the C value ([1]; 10 mg/kg p.o. daily) of the same molecule?
**A.** 89.00 % correct responses (2×) and 86.00 % correct responses (3×) and 100.00 % correct responses

**Q.** What about the “Days to C” value ([1]; 10 mg/kg p.o. daily) of the same molecule?
**A.** 18 days and 9 days and 5 days and 12 days and 15 days and 25 days

**Q.** And the “RT 1-14 (retention test trials 1 to 14), mean” value [1, 12]?
**A.** 58.4±4.1 % correct and 58.400 % correct

**Q.** And the “RT 15-28 (retention test trials 15 to 28), mean” value [1, 12]?
**A.** 71.4±6.1 % correct and 71.400 % correct

**Q.** And the “retention test, mean” value [1, 12]?
**A.** 65.0±3.5 % correct responses and 65.000 % correct responses

**Q.** And the “RT 1-14 (retention test trials 1 to 14), mean” value [1, 13]?
**A.** 59.333 % correct responses

**Q.** What about the “RT 15-28 (retention test trials 15 to 28), mean” value [1, 13] of the same molecule?
**A.** 72.667 % correct responses

**Q.** And the “retention test, mean” value [1, 13]?
**A.** 66.000 % correct responses

**Q.** What about the RT overall ([1]; 100 mg/kg p.o. daily) of the same molecule?
**A.** 75.00 % correct responses and 71.00 % correct responses and 57.00 % correct responses (2×) and 68.00 % correct responses (2×)

**Q.** And the “RT trials 1-14” value ([1]; 100 mg/kg p.o. daily)?
**A.** 64.00 % correct responses (2×) and 50.00 % correct responses (2×) and 57.00 % correct responses and 71.00 % correct responses

**Q.** What about the “RT trials 15-28” value ([1]; 100 mg/kg p.o. daily) of the same molecule?
**A.** 86.00 % correct responses (2×) and 79.00 % correct responses and 64.00 % correct responses (2×) and 57.00 % correct responses

**Q.** What about the “C value (criterion value reached), mean” value [1, 14] of the same molecule?
**A.** 86.333 % correct responses

**Q.** And the “day to C (days to reach criterion), mean” value [1, 14]?
**A.** 10.333 days

**Q.** And the “C value (criterion value reached), mean” value [1, 15]?
**A.** 86.4±0.7 % correct responses and 86.400 % correct responses

**Q.** What about the “day to C (days to reach criterion), mean” value [1, 15] of the same molecule?
**A.** 9.0 ± 2.8 days and 9.000 days

**Q.** And the C value ([1]; 100 mg/kg p.o. daily)?
**A.** 85.00 % correct responses and 86.00 % correct responses (4×) and 89.00 % correct responses

**Q.** What about the “Days to C” value ([1]; 100 mg/kg p.o. daily) of the same molecule?
**A.** 11 days and 3 days and 10 days and 18 days and 17 days

**Q.** What about the “animals with improved memory performance (decrease in the number of days needed to reach criterion)” value ([1]; 1, 10, 100 mg/kg p.o., six aged macaques) of the same molecule?
**A.** Five of the six

**Q.** And the “days to criterion versus vehicle” value ([1]; each dose (1, 10, 100 mg/kg p.o.), Bonferroni t-test, p<0.050, old-9 excluded)?
**A.** significant decrease

**Q.** And the “learning ability and long term memory of normal aged non-human primates” value ([1]; summary of study)?
**A.** significantly improves

**Q.** And the “behavioral or physical side effects” value [2]?
**A.** no noticeable behavioral or physical side effects

**Q.** With COc1ccc(C2CNC(=O)C2)cc1OC1CCCC1 (centres unmarked) [rolipram] as the molecule, how does the “age-dependent loss of hippocampal-dependent memory and cellular long-term potentiation” value [3] read?
**A.** ameliorates

Source: US20100028839A1, “METHODS AND SYSTEMS FOR EVALUATING MEMORY AGENTS” (priority 2008, published 2010)
